Experimental data published in patent US20190388389A1, “METHODS AND COMPOSITIONS OF CARNOSOL FOR INHIBITING UVB-INDUCED SKIN DAMAGE” (Ohio University, priority 2017, published 2019).

Assays:
normal skin cells = experiment: Cell proliferation with carnosol or its decomposed molecules (FIG. 11); format: cell-based
Protocol: FIG. 11. The effect of carnosol or its decomposed molecules on cell proliferation was determined.
(§1) UVB was generated from a Bench XX-Series UV Lamp (UVP Inc.) equipped with two 15-watt UVB tubes (UVP Inc.). The intensity of UVB was calibrated by a UVP model UVX digital radiometer (UVP Inc.) after the lamps warmed up for 5 min. For irradiating cells, the dose rate for 8 mJ/cm^2 or 50 mJ/cm^2 of UVB radiation was 0.8 or 3.8 mW/s respectively. Medium was removed before exposing the cells to UVB. After UVB radiation, fresh medium was added to the culture plates with or without drugs, and the cells were continue incubating at 37° C. with 5% CO2 until further analysis. Carnosol was disovled in DMSO and was irradiated with 50 mJ/cm^2 of UVB radiation at a dose rate of 3.8 mW/s before subjecting to cells or structure analysis using Mass Spectrum.

HaCaT cells = experiment: Comet assay for HaCaT exposed to UVB radiation; format: cell-based, Human; conditions: semi-quantitative by Image J
From the text: FIG. 5D: Comet assay for HaCaT exposed to UVB radiation. After cell treatment, cells were trypsinized and collect for comet assay. The tail intensity was semi-quantitatively analyzed using Image J.
Both human keratinocyte (HaCaT) and mouse embryonic fibroblast (MEF) cells were used, and the protein levels of γH2AX and phosphor-Chk were used as DNA damage marker. […] Similar results are observed in MEF cells as both the phosphorylation level of H2AX and Chk reduced at early stage post UVB radiation (FIG. 5B). […] To further show the protection effect of carnosol on UVB-irradiated cell, a comet assay was performed. […] Thus, carnosol ast least partially protect the DNA damage from UVB radiation.

MEF cells = experiment: Cell survival analysis (Annexin V/PI flow cytometry), MEF; format: cell-based, mouse; conditions: 20 μM carnosol
Protocol: FIGS. 6A-6C: Carnosol protects UVB-induced cell death. Cells were exposed to UVB radiation with different dose of carnosol treatment. At indicated time point, cells were collected and Annexin V/PI apoptosis detection kit was used to detect cell apoptosis. (FIG. 6A) HaCaT cell survival rate with different concentrations (μM) of carnosol treatment at 12 h post UVB radiation. (FIG. 6B) Time dependent assay (h) in the presence or absence of carnosol treatment in HaCaT cells. (FIG. 6C) MEF cells treated with 20 μM carnosol at indicated time point (h). The error bars present the standard deviation of three sets of independent experiments. *p<0.05 versus control group; **p<0.05 versus corresponded UV group.
as §1
Carnosol (Cayman) (FIG. 1) was added to cells at indicated concentration at 1 h before exposing the cells to UVB radiation. After radiation, cells were continuously incubated with or without carnosol in the medium until further analysis.
Total cell number of 1×10^5 was used for each analysis using flow cytometer. Fluorescein isothiocyanate (FITC) conjugated-annexin V (ANXS)/propidium iodide (PI) apoptosis detection kit (BD Biosciences) were used to stain the cells through the determination of the loss of membrane phospholipid […] and membrane integrity. Cell survival rate (R) was calculated as: R=[1×10^5−number of positive stained cells]/1×10^5. Briefly, the cells were harvested by 0.25% trypsin digestion, combined with the cells floating in the medium and washed twice with cold PBS. The cells were then suspended in ANXS binding buffer (10 mM Hepes/NaOH, pH 7.4, 140 mM NaCl and 2.5 mM CaCl2). The cell suspension was mixed with 5 μL ANXS-FITC and 5 μL PI. The cell mixture was incubated for […] in dark at room temperature and the ANXS/PI double-stained cells were analyzed using a FACSort Flow Cytometer (BD Science) equipped with CellQuest software (BD Science).

ONOO^− in HaCaT cells = experiment: Peroxynitrite measurement (DAR) after UVB radiation; format: cell-based, Human; conditions: 20 μM carnosol
Protocol: FIGS. 4A-4B: Quantitative analysis of NO* and ONOO^− after UVB radiation. HaCaT cells were irradiated with UVB radiation in the presence or absence of carnosol (20 μM). At indicated time point, cells were stained with DAF-2DA or DAR. The fluorescent intensity was then measured and normalized to cell viability. (FIG. 4A) Quantitative measurement of NO*. (FIG. 4B) Quantitative measurement of ONOO^−. *p<0.05 versus corresponded group with carnosol treatment upon UVB radiation.
The level of NO* was measured by 5 mM diaminofluorescein diacetate (DAF-2DA) (ex490/em520 nm) and ONOO^− was measured by 5 mM diaminorhodamine (DAR) (ex488/em515 nm). 1×10^5 HaCaT cells were seeded in 96-well plate one day before measurement. […] The cells were then incubated in dark for 2 h at room temperature and the fluorescence was measured by luminometer (Molecular devices Spectra Max M2). The reading was then normalized by AlamarBlue cell viability assay (Life technology). 10% of the Alamar Blue reagent was added to cells with medium followed by 2 h incubation at 37° C. in dark then read the fluorescent at ex570/em590 nm using luminometer (Molecular devices Spectra Max M2).
Both NO* and ONOO^− are induced by UVB radiation. By using DAF-2DA (5 mM) and DAR (5 mM), the effect of carnosol on intracellular NO* and ONOO^− level, in a time dependent manner upon UVB radiation, was also measured.

[1] = tested on: cyclobutane pyrimidine dimer (CPD) formation; experiment: Quantitative measurement of CPD formation after UVB; format: cell-based; conditions: with vs without carnosol
From the text: FIG. 5E: Quantitative measurement of cyclobutane pyrimidine dimer (CPD) formation, with and without UVB, and with and without carnosol. *p<0.05 versus corresponded control group, **p<0.05 versus corresponded UV group.
There are two major forms of DNA damage caused by UVB radiation: one is the direct DNA damage which forms CPD; the other is the oxidation-caused DNA damage, which causes the formation of 6-4 PP. In order to identify which form of DNA damage is protected by carnosol, a quantitative assay to identify the production of both DNA damage products after UVB radiation with or without carnosol treatment was performed.

CC(C)c1cc2c(c(O)c1O)[C@@]13CCCC(C)(C)[C@@H]1C[C@@H]2OC3=O [carnosol] was tested, and the “protection of the UVB-irradiated cells (proliferation)” value (normal skin cells) was “partial protection”, the “cell proliferation / cell growth in normal skin cells” value (normal skin cells; without UVB protection context) was “some effect in inhibiting cell proliferation” and the “comet tail intensity upon UVB radiation” value (HaCaT cells) was “almost by half”. The cell survival rate (MEF cells; 12 h post UVB, UVB alone about 88%) was 97%, the cell survival rate (MEF cells; 24 h post UVB, UVB alone 80%) was 90% and the cell survival rate (MEF cells; 36 h post UVB, UVB alone 62%) was 70%. The cell survival rate (MEF cells; 48 h post UVB, UVB alone 43%) was 58%, the “reduction of ONOO^− level” value (ONOO^− in HaCaT cells; average from 2 h to 24 h post UVB) was “about 40%” and the “ONOO^− level of cells without radiation” value (ONOO^− in HaCaT cells; no UVB) was “little effect”. For the same compound, the “formation of CPD after UVB radiation” value [1] was “almost by half”.
